In the assay the test system is Danio rerio larvae Tg(actc1b:ZsGreen-LC3), 3 dpf. The assay can be described thus: LC3 puncta relative area vs vehicle (mean) (log2 fold change); higher = more autophagy. The note with it: treatment time 16 h. The procedure:
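Transgenic ZsGreen-LC3 zebrafish larvae (2 dpf) were treated for 16 h with natural bioactives at 10, 50, 100 or 250 µM. Skeletal-muscle LC3 puncta area was measured by high-content imaging with or without 4 h of 100 mM NH4Cl, normalised to vehicle, and reported as the mean log2 fold change over 4–21 larvae.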

The structures appear in SMILES notation.

As for `NC(=O)c1ccc[n+]([C@@H]2O[C@H](CO)[C@@H](O)[C@H]2O)c1` [Nicotinamide riboside chloride], the “LC3 puncta (log2)” value is 0.917 (NH4Cl: + NH4Cl, 10 µM); 0.613 (NH4Cl: + NH4Cl, 50 µM); 0.663 (NH4Cl: + NH4Cl, 100 µM); 0.76 (NH4Cl: + NH4Cl, 250 µM); 0.148 (NH4Cl: - NH4Cl, 10 µM); -0.293 (NH4Cl: - NH4Cl, 50 µM). Also, the “LC3 puncta (log2)” value (NH4Cl: - NH4Cl, 100 µM) was determined as 0.0672 and the “LC3 puncta (log2)” value (NH4Cl: - NH4Cl, 250 µM) amounted to 0.257.
For the compound `O=c1oc2c(O)c(O)cc3c(=O)oc4c(O)c(O)cc1c4c23` [Ellagic acid], the “LC3 puncta (log2)” value was 0.705 (NH4Cl: + NH4Cl, 10 µM); 0.347 (NH4Cl: + NH4Cl, 50 µM); 0.0739 (NH4Cl: + NH4Cl, 100 µM); 0.0325 (NH4Cl: + NH4Cl, 250 µM); 0.154 (NH4Cl: - NH4Cl, 10 µM); -0.476 (NH4Cl: - NH4Cl, 50 µM). Further, the “LC3 puncta (log2)” value is -0.223 (NH4Cl: - NH4Cl, 100 µM) and 0.00958 (NH4Cl: - NH4Cl, 250 µM).
Regarding `C[C@@H](CO)C(=O)O` [Sodium β-hydroxyisobutyrate], the “LC3 puncta (log2)” value (NH4Cl: + NH4Cl, 10 µM) came to 0.761; the “LC3 puncta (log2)” value (NH4Cl: + NH4Cl, 50 µM) was 0.505; the “LC3 puncta (log2)” value (NH4Cl: + NH4Cl, 100 µM) was 0.553; the “LC3 puncta (log2)” value (NH4Cl: + NH4Cl, 250 µM) was 0.277; the “LC3 puncta (log2)” value (NH4Cl: - NH4Cl, 10 µM) came to 0.14; the “LC3 puncta (log2)” value (NH4Cl: - NH4Cl, 50 µM) was -0.573. The “LC3 puncta (log2)” value is, setting by setting: (NH4Cl: - NH4Cl, 100 µM) -0.233; (NH4Cl: - NH4Cl, 250 µM) -0.327.
Regarding `NC(=O)c1cccnc1` [Nicotinamide NAM], the “LC3 puncta (log2)” value was 0.821 (NH4Cl: + NH4Cl, 10 µM); 0.328 (NH4Cl: + NH4Cl, 50 µM); 0.663 (NH4Cl: + NH4Cl, 100 µM); 0.606 (NH4Cl: + NH4Cl, 250 µM); -0.196 (NH4Cl: - NH4Cl, 10 µM); -0.178 (NH4Cl: - NH4Cl, 50 µM). The “LC3 puncta (log2)” value reads like this: (NH4Cl: - NH4Cl, 100 µM) 0.12; (NH4Cl: - NH4Cl, 250 µM) -0.631.
`CCCCCCCC(=O)[O-].[Na+]` [Sodium octanoate]: the “LC3 puncta (log2)” value is 0.613 (NH4Cl: + NH4Cl, 10 µM); 0.427 (NH4Cl: + NH4Cl, 50 µM); 0.342 (NH4Cl: + NH4Cl, 100 µM); 0.503 (NH4Cl: + NH4Cl, 250 µM); -0.0249 (NH4Cl: - NH4Cl, 10 µM); 0.344 (NH4Cl: - NH4Cl, 50 µM). The “LC3 puncta (log2)” value runs as follows: (NH4Cl: - NH4Cl, 100 µM) 0.217; (NH4Cl: - NH4Cl, 250 µM) 0.272.
In the case of `C/C1=C2/[N-]C([C@H](CC(N)=O)[C@@]2(C)CCC(=O)NCC(C)OP(=O)([O-])OC2C(O)[C@@H](n3cnc4cc(C)c(C)cc43)O[C@@H]2CO)[C@]2(C)N=C(/C(C)=C3N=C(/C=C4N=C1[C@@H](CCC(N)=O)C\4(C)C)[C@@H](CCC(N)=O)[C@]\3(C)CC(N)=O)[C@@H](CCC(N)=O)[C@]2(C)CC(N)=O.[CH2-]C1O[C@H](n2cnc3c(N)ncnc32)[C@@H](O)[C@H]1O.[Co+3]` (stereo partly drawn) [Coenzyme B12], the “LC3 puncta (log2)” value is, setting by setting: (NH4Cl: + NH4Cl, 10 µM) 0.47; (NH4Cl: + NH4Cl, 50 µM) 0.446; (NH4Cl: + NH4Cl, 100 µM) 0.394; (NH4Cl: + NH4Cl, 250 µM) 0.833; (NH4Cl: - NH4Cl, 10 µM) 0.178; (NH4Cl: - NH4Cl, 50 µM) -0.299. The “LC3 puncta (log2)” value is, setting by setting: (NH4Cl: - NH4Cl, 100 µM) 0.292; (NH4Cl: - NH4Cl, 250 µM) 0.281.
For `C[C@H](O)CCO` [(S)-1,3-Butylene Glycol], the “LC3 puncta (log2)” value is 0.505 (NH4Cl: + NH4Cl, 10 µM); -0.0626 (NH4Cl: + NH4Cl, 50 µM); 0.509 (NH4Cl: + NH4Cl, 100 µM); -0.143 (NH4Cl: - NH4Cl, 10 µM); -0.512 (NH4Cl: - NH4Cl, 50 µM); -0.016 (NH4Cl: - NH4Cl, 100 µM). Moreover, the “LC3 puncta (log2)” value (NH4Cl: - NH4Cl, 250 µM) amounted to 0.014.
As for `O=C(O)CC(O)(CC(=O)O)C(=O)O` [Citric acid], the “LC3 puncta (log2)” value is 0.486 (NH4Cl: + NH4Cl, 10 µM); 0.837 (NH4Cl: + NH4Cl, 50 µM); -0.0949 (NH4Cl: + NH4Cl, 100 µM); -0.815 (NH4Cl: + NH4Cl, 250 µM); -0.0291 (NH4Cl: - NH4Cl, 10 µM); -0.364 (NH4Cl: - NH4Cl, 50 µM). Also, the “LC3 puncta (log2)” value (NH4Cl: - NH4Cl, 100 µM) was found to be 0.353 and the “LC3 puncta (log2)” value (NH4Cl: - NH4Cl, 250 µM) was determined as 0.401.
On to `CCCCCCCC(=O)O` [Octanoic acid], for which the “LC3 puncta (log2)” value is, setting by setting: (NH4Cl: + NH4Cl, 10 µM) 0.0521; (NH4Cl: + NH4Cl, 50 µM) 0.079; (NH4Cl: + NH4Cl, 100 µM) 0.553; (NH4Cl: - NH4Cl, 10 µM) -0.257; (NH4Cl: - NH4Cl, 50 µM) 0.356; (NH4Cl: - NH4Cl, 100 µM) 0.0532.
`CC(C)C[C@H](N)C(=O)O` [L-Leucine]: the “LC3 puncta (log2)” value (NH4Cl: + NH4Cl, 10 µM) was 0.433; the “LC3 puncta (log2)” value (NH4Cl: + NH4Cl, 50 µM) was 0.183; the “LC3 puncta (log2)” value (NH4Cl: + NH4Cl, 100 µM) turned out to be 0.128; the “LC3 puncta (log2)” value (NH4Cl: + NH4Cl, 250 µM) is -0.405; the “LC3 puncta (log2)” value (NH4Cl: - NH4Cl, 10 µM) was -0.25; the “LC3 puncta (log2)” value (NH4Cl: - NH4Cl, 50 µM) was -0.762. The “LC3 puncta (log2)” value is -0.689 (NH4Cl: - NH4Cl, 100 µM) and -0.726 (NH4Cl: - NH4Cl, 250 µM).
Take `CCCCCCCCCCCCCCCC(=O)O` [Palmitic acid]: the “LC3 puncta (log2)” value reads like this: (NH4Cl: + NH4Cl, 10 µM) 0.572; (NH4Cl: + NH4Cl, 50 µM) 0.0741; (NH4Cl: + NH4Cl, 100 µM) 0.0454; (NH4Cl: + NH4Cl, 250 µM) 0.114; (NH4Cl: - NH4Cl, 10 µM) 0.561; (NH4Cl: - NH4Cl, 50 µM) -0.136. Besides, the “LC3 puncta (log2)” value (NH4Cl: - NH4Cl, 100 µM) is -0.712 and the “LC3 puncta (log2)” value (NH4Cl: - NH4Cl, 250 µM) is -0.593.
As to `O=c1oc2cc(O)ccc2c2ccccc12` [Urolithin B], the “LC3 puncta (log2)” value was determined as 0.159 (NH4Cl: + NH4Cl, 10 µM); 1.38 (NH4Cl: + NH4Cl, 50 µM); 1.04 (NH4Cl: + NH4Cl, 100 µM); 0.474 (NH4Cl: - NH4Cl, 10 µM); 0.688 (NH4Cl: - NH4Cl, 50 µM); 0.767 (NH4Cl: - NH4Cl, 100 µM).
Consider `N[C@H]1C(O)O[C@H](CO)[C@@H](O)[C@@H]1O` (stereo partly drawn) [D-glucosamine], for which the “LC3 puncta (log2)” value (NH4Cl: + NH4Cl, 10 µM) is 0.082; the “LC3 puncta (log2)” value (NH4Cl: + NH4Cl, 50 µM) is 0.412; the “LC3 puncta (log2)” value (NH4Cl: + NH4Cl, 100 µM) stood at 0.454; the “LC3 puncta (log2)” value (NH4Cl: + NH4Cl, 250 µM) was determined as 0.285; the “LC3 puncta (log2)” value (NH4Cl: - NH4Cl, 10 µM) amounted to 0.0603; the “LC3 puncta (log2)” value (NH4Cl: - NH4Cl, 50 µM) amounted to 0.0831. The “LC3 puncta (log2)” value was 0.218 (NH4Cl: - NH4Cl, 100 µM) and 0.352 (NH4Cl: - NH4Cl, 250 µM).
For the compound `O=C(O)c1cccnc1` [Nicotinic acid], the “LC3 puncta (log2)” value was found to be 0.718 (NH4Cl: + NH4Cl, 10 µM); 0.758 (NH4Cl: + NH4Cl, 50 µM); 0.79 (NH4Cl: + NH4Cl, 100 µM); 0.941 (NH4Cl: + NH4Cl, 250 µM); 0.0747 (NH4Cl: - NH4Cl, 10 µM); 0.284 (NH4Cl: - NH4Cl, 50 µM). In addition, the “LC3 puncta (log2)” value came to 0.456 (NH4Cl: - NH4Cl, 100 µM) and 0.418 (NH4Cl: - NH4Cl, 250 µM).
For `C[C@@H](O)C(=O)O` [(2R)-2-hydroxypropanoic acid], the “LC3 puncta (log2)” value is 0.532 (NH4Cl: + NH4Cl, 10 µM); 0.237 (NH4Cl: + NH4Cl, 50 µM); 0.304 (NH4Cl: + NH4Cl, 100 µM); 0.589 (NH4Cl: + NH4Cl, 250 µM); 0.00532 (NH4Cl: - NH4Cl, 10 µM); -0.27 (NH4Cl: - NH4Cl, 50 µM). Also, the “LC3 puncta (log2)” value is 0.144 (NH4Cl: - NH4Cl, 100 µM) and -0.203 (NH4Cl: - NH4Cl, 250 µM).
For `O=C1C[C@H](O)[C@@H](CO)O1` [2-deoxyribonolactone], the “LC3 puncta (log2)” value reads like this: (NH4Cl: + NH4Cl, 10 µM) 0.749; (NH4Cl: + NH4Cl, 50 µM) 0.4; (NH4Cl: + NH4Cl, 100 µM) 0.746; (NH4Cl: + NH4Cl, 250 µM) 0.616; (NH4Cl: - NH4Cl, 10 µM) 0.195; (NH4Cl: - NH4Cl, 50 µM) -0.131. Further, the “LC3 puncta (log2)” value by setting is: (NH4Cl: - NH4Cl, 100 µM) 0.251; (NH4Cl: - NH4Cl, 250 µM) -0.0832.
